Data: patent US8748603B2, “Crystalline forms of N-[2-[[(2,3-difluorophenyl)methyl]THIO]-6-{[(1R,2S)-2,3-dihydroxy-1-methylpropyl]oxy}-4-pyrimidinyl]-1-azetidinesulfonamide” (AstraZeneca AB, priority 2010, dated 2014)

Experiment: Competitive slurry trials between A-form and D-form (thermodynamic stability)
Type: physicochemical
Conditions: for Solid form stability in competitive slurry: slurries containing A-form and D-form in methanol, held at about 5° C. to about 50° C.; for Relative thermodynamic stability of crystalline forms: D-form versus A-form, conclusion from competitive slurries in methanol, about 5° C. to about 50° C.
Method: Competitive slurry trials were performed between the A-form (obtained by Example 1) and the D-form (obtained by Example 2).
Competitive slurries containing the A-form and D-form in methanol were held at any temperatures ranging from about 5° C. to about 50° C.
Complete conversion of the A-form to the D-form takes place, if the slurry is held at a particular temperature for a sufficient duration of time.

| Compound | Solid form stability in competitive slurry | Relative thermodynamic stability of crystalline forms | Relative thermodynamic stability of crystalline forms (listed as Form D) |
| --- | --- | --- | --- |
| C[C@@H](Oc1cc(NS(=O)(=O)N2CCC2)nc(SCc2cccc(F)c2F)n1)[C@@H](O)CO [A-form, N-[2-[[(2,3-difluorophenyl)methyl]thio]-6-{[(1R,2S)-2,3-dihydroxy-1-methylpropyl]oxy}-4-pyrimidinyl]-1-azetidinesulfonamide] | transforms to the D-form |  |  |
| C[C@@H](Oc1cc(NS(=O)(=O)N2CCC2)nc(SCc2cccc(F)c2F)n1)[C@@H](O)CO [D-form, N-[2-[[(2,3-difluorophenyl)methyl]thio]-6-{[(1R,2S)-2,3-dihydroxy-1-methylpropyl]oxy}-4-pyrimidinyl]-1-azetidinesulfonamide] | remained stable | thermodynamically more stable form than the A-form | more thermodynamically stable than the A-form |
